# Laboratory results reported in patent US7754919B2, “Non-nucleoside reverse transcriptase inhibitors” (Roche Palo Alto LLC, priority 2005, dated 2010).
# pIC50: −log10 of the molar value.
# Experiments:
# HIV-1 RT [1] = target: T1, HIV-1 RT (Human immunodeficiency virus type 1 group M subtype B, UniProt P03366); assay: Homopolymer HIV Reverse Transcriptase Assay: Inhibitor IC50 Determination; type: biochemical; settings: purified recombinant enzyme, poly(rA)/oligo(dT)16 template-primer, [3H] dTTP, 37° C. 30 min
# Description: Homopolymer HIV Reverse Transcriptase Assay: Inhibitor IC50 Determination
# HIV-1 RT assay was carried out in 96-well Millipore MultiScreen MADVNOB50 plates using purified recombinant enzyme and a poly(rA)/oligo(dT)16 template-primer in a total volume of 50 μL. The assay constituents were 50 mM Tris/HCl, 50 mM NaCl, 1 mM EDTA, 6 mM MgCl2, 5 μM dTTP, 0.15 μCi [^3H] dTTP, 5 μg/ml poly (rA) pre annealed to 2.5 μg/ml oligo (dT)16 and a range of inhibitor concentrations in a final concentration of 10% DMSO. reactions were initiated by adding 4 nM HIV-1 RT and after incubation at 37° C. for 30 min, they were stopped by the addition of 50 μl ice cold 20%TCA and allowed to precipitate at 4° C. for 30 min. The precipitates were collected by applying vacuum to the plate and sequentially washing with 3×200 μl of 10% TCA and 2×200 μl 70% ethanol. Finally, the plates were dried and radioactivity counted in a Packard TopCounter after the addition of 25 μl scintillation fluid per well. IC50's were calculated by plotting % inhibition versus log10 inhibitor concentrations.
# HIV-1 RT [2] = target: T1, HIV-1 RT; assay: Heteropolymer HIV reverse Transcriptase Assay: Inhibitor IC50 Determination; type: biochemical; settings: RNA-dependent DNA polymerase activity, biotinylated DNA primer/RNA template, SPA beads, 30°C 30 min
# Description: Heteropolymer HIV reverse Transcriptase Assay: Inhibitor IC50 Determination
# RNA-dependent DNA polymerase activity was measured using a biotinylated primer oligonucleotide and tritiated dNTP substrate. Newly synthesized DNA was quantified by capturing the biotinylated primer molecules on streptavidin coated Scintillation Proximity Assay (SPA) beads (Amersham). The sequences of the polymerase assay substrate were: 18nt DNA primer, 5′-Biotin/GTC CCT GTT CGG GCG CCA-3′ (SEQ. ID NO. 2); 47nt RNA template, 5′-GGGUCUCUCUGGUUAGACCACUCUAGCAGUGGCGCCCGAACAGGGAC-3′ (SEQ ID NO. 1). The biotinylated DNA primer was obtained from the Integrated DNA Technologies Inc. and the RNA template was synthesized by Dharmacon. The DNA polymerase assay (final volume 50 μl) contained 32 nM biotinylated DNA primer, 64 nM RNA substrate, dGTP, dCTP, dTTP (each at 5 μM), 103 nM [^3H]-dATP (specific activity=[…]), in 45 mM Tris-HCl, pH 8.0, 45 mM NaCl, 2.7 mM Mg(CH3COO)2, 0.045% Triton X-100 w/v, 0.9 mM EDTA. The reactions contained 5 μl of serial compound dilutions in 100% DMSO for IC50 determination and the final concentrations of DMSO were 10%. Reactions were initiated by the addition of 30 μl of the HIV-1-RT enzyme (final concentrations of 1-3 nM). Protein concentrations were adjusted to provide linear product formation for at least 30 min of incubation. After incubation at 30°C for 30 min, the reaction was quenched by addition of 50 μl of 200 mM EDTA (pH 8.0) and 2 mg/ml SA-PVT SPA beads (Amersham, RPNQ0009, reconstituted in 20 mM Tris-HCl, pH 8.0, 100 mM EDTA and 1% BSA). The beads were left to settle overnight and the SPA signals were counted in a 96-well top counter-NXT (Packard). IC50 values were obtained by sigmoidal regression analysis using GraphPad Prism 3.0 (GraphPad Software, Inc.).
Compound,pIC50 (HIV-1 RT [1]),melting point [°C],pIC50 (HIV-1 RT [2])
"Cc1cc(C(=O)NCCN2CCC(O)CC2)ccc1NC(=O)Cc1ccc(Br)c(Oc2cc(Cl)cc(C#N)c2)c1F [Compound I-25, 4-{2-[4-Bromo-3-(3-chloro-5-cyano-phenoxy)-2-fluoro-phenyl]-acetylamino}-N-[2-(4-hydroxy-piperidin-1-yl)-ethyl]-3-methyl-benzamide]",7.26,219.6 to 221.6,–
"Cc1cc(C(=O)NCCN(C)C)ccc1NC(=O)Cc1ccc(Cl)c(Oc2cc(Cl)cc(C#N)c2)c1F [Compound I-5, 4-{2-[4-Chloro-3-(3-chloro-5-cyano-phenoxy)-2-fluoro-phenyl]-acetylamino}-N-(2-dimethylamino-ethyl)-3-methyl-benzamide; compound with trifluoro-acetic acid]",7.81,–,–
"Cc1cc(C(=O)NC[C@@H](C)O)ccc1NC(=O)Cc1ccc(Cl)c(Oc2cc(Cl)cc(C#N)c2)c1F [Compound I-10, 4-{2-[4-Chloro-3-(3-chloro-5-cyano-phenoxy)-2-fluoro-phenyl]-acetylamino}-N-((R)-2-hydroxy-propyl)-3-methyl-benzamide]",7.74,249 to 249.4,–
"CC(C)(CN1CCCC1)NC(=O)c1ccc(NC(=O)Cc2ccc(Br)c(Oc3cc(Cl)cc(C#N)c3)c2F)c(Cl)c1 [Compound I-45, 4-{2-[4-Bromo-3-(3-chloro-5-cyano-phenoxy)-2-fluoro-phenyl]-acetylamino}-3-chloro-N-(1,1-dimethyl-2-pyrrolidin-1-yl-ethyl)-benzamide]",–,70,8.39
"CN1CCC(NC(=O)c2ccc(NC(=O)Cc3ccc(Br)c(Oc4cc(Cl)cc(C#N)c4)c3F)c(Cl)c2)C1 (centres unmarked) [Compound I-50, 4-{2-[4-Bromo-3-(3-chloro-5-cyano-phenoxy)-2-fluoro-phenyl]-acetylamino}-3-chloro-N-(1-methyl-pyrrolidin-3-yl)-benzamide]",–,204,8.16
"Cc1cc(C(=O)NS(C)(=O)=O)ccc1NC(=O)Cc1ccc(Br)c(Oc2cc(Cl)cc(C#N)c2)c1F [Compound I-36, 2-[4-Bromo-3-(3-chloro-5-cyano-phenoxy)-2-fluoro-phenyl]-N-(4-methanesulfonylaminocarbonyl-2-methyl-phenyl)-acetamide]",8.34,244.9 to 246.7,–
"Cc1cc(C(=O)NCc2cccnc2)ccc1NC(=O)Cc1ccc(Cl)c(Oc2cc(Cl)cc(C#N)c2)c1F [Compound I-15, 4-{2-[4-Chloro-3-(3-chloro-5-cyano-phenoxy)-2-fluoro-phenyl]-acetylamino}-3-methyl-N-pyridin-3-ylmethyl-benzamide; compound with trifluoro-acetic acid]",7.78,–,–
"Cc1cc(C(=O)NCC(O)CO)ccc1NC(=O)Cc1ccc(Cl)c(Oc2cc(Cl)cc(C#N)c2)c1F (centres unmarked) [Compound I-20, 4-{2-[4-Chloro-3-(3-chloro-5-cyano-phenoxy)-2-fluoro-phenyl]-acetylamino}-N-(2,3-dihydroxy-propyl)-3-methyl-benzamide]",7.69,–,–
"N#Cc1cc(Cl)cc(Oc2c(Br)ccc(CC(=O)Nc3ccc(C(=O)NC4CCS(=O)(=O)C4)cc3Cl)c2F)c1 (centres unmarked) [Compound I-55, 4-{2-[4-Bromo-3-(3-chloro-5-cyano-phenoxy)-2-fluoro-phenyl]-acetylamino}-3-chloro-N-(1,1-dioxo-tetrahydro-1λ^6-thiophen-3-yl)-benzamide]",–,236.6,7.79
"Cc1cc(C(=O)NCCN2CCNCC2)ccc1NC(=O)Cc1ccc(Br)c(Oc2cc(Cl)cc(C#N)c2)c1F [Compound I-30, 4-{2-[4-Bromo-3-(3-chloro-5-cyano-phenoxy)-2-fluoro-phenyl]-acetylamino}-3-methyl-N-(2-piperazin-1-yl-ethyl)-benzamide]",7.68,126.5 to 127,–
"Cl.N#Cc1cc(Cl)cc(Oc2c(Br)ccc(CC(=O)Nc3ccc(C(=O)NCCN4CCC(F)(F)CC4)cc3Cl)c2F)c1 [Compound I-40, 4-{2-[4-Bromo-3-(3-chloro-5-cyano-phenoxy)-2-fluoro-phenyl]-acetylamino}-3-chloro-N-[2-(4,4-difluoro-piperidin-1-yl)-ethyl]-benzamide; hydrochloride salt]",–,140.2 to 143.3,7.43
Cc1cc(C(=O)NCCN2CCS(=O)(=O)CC2)ccc1NC(=O)Cc1ccc(Br)c(Oc2cc(Cl)cc(C#N)c2)c1F,–,168.1 to 170.1,–
N#Cc1cc(Cl)cc(Oc2c(Br)ccc(CC(=O)Nc3ccc(C(=O)NCCN(CCO)CCO)cc3Cl)c2F)c1,–,100.1,–
N#Cc1cc(Cl)cc(Oc2c(Cl)ccc(CC(=O)Nc3ccc(C(=O)O)cc3Cl)c2F)c1,–,242 to 243,–
Cc1cc(C(=O)O)ccc1NC(=O)Cc1ccc(Br)c(Oc2cc(C#N)cc(C(F)F)c2)c1F,–,267.9 to 268.1,–
